# ChEMBL document CHEMBL1909046, “DrugMatrix in vitro pharmacology data”
# pIC50, pKi: −log10 of the molar value.
# How the values were obtained:
# [1] = target: T1, Polyunsaturated fatty acid lipoxygenase ALOX15 (Oryctolagus cuniculus, UniProt P12530); experiment: biochemical; format: tissue-based, Reticulocytes; conditions: for IC50: reticulocytes; for pIC50: read-out: IC50;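 for all read-outs here: inhibition of 15-lipoxygenase enzyme activity measured with linoleic acid as the substrate; in other assays of this panel Not Active means under 50% inhibition at 10 µM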
# T1 sequence (P12530 whole entry): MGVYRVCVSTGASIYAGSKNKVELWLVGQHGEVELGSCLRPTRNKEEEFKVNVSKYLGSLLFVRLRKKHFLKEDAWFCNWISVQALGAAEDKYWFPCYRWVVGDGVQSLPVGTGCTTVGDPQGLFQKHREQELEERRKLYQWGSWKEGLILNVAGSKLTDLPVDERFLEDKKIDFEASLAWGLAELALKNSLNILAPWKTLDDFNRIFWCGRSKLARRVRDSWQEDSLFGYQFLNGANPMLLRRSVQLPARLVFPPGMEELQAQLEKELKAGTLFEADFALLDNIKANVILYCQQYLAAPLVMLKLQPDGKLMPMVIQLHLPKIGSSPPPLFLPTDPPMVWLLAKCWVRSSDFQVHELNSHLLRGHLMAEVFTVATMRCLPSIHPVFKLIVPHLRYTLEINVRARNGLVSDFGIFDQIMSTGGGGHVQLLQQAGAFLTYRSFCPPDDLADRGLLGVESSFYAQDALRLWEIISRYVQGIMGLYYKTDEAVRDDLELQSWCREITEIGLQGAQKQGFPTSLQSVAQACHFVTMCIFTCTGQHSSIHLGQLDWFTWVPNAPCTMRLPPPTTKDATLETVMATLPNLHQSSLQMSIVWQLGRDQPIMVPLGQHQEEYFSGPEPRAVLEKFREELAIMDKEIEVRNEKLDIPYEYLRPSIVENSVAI
# [2] = target: Mitogen-activated protein kinase 1 (Homo sapiens, UniProt P28482); experiment: DRUGMATRIX: Protein Serine/Threonine Kinase, ERK2 enzyme inhibition (substrate: Myelin Basic Protein); set-up: species or system Escherichia coli; conditions: Not Active = under 50% inhibition at 10 µM
# Sequence of Mitogen-activated protein kinase 1 (P28482 whole entry): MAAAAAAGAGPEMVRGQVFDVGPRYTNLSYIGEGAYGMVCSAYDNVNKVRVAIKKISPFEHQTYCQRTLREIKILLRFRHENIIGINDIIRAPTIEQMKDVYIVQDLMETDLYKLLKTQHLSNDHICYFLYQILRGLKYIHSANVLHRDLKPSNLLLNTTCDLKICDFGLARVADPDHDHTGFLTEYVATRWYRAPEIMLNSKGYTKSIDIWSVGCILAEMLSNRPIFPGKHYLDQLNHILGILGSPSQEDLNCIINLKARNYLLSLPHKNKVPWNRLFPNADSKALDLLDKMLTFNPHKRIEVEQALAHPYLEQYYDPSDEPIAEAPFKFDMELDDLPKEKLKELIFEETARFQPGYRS
# [3] = target: T2, Muscarinic acetylcholine receptor M5 (Homo sapiens, UniProt P08912); format: cell membranes, CHO-K1, Membrane; conditions: for IC50: cho-k1; for pIC50: read-out: IC50; for pKi: read-out: Ki; for all read-outs here: in other assays of this panel Not Active means under 50% inhibition at 10 µM
# T2 sequence (P08912 whole entry): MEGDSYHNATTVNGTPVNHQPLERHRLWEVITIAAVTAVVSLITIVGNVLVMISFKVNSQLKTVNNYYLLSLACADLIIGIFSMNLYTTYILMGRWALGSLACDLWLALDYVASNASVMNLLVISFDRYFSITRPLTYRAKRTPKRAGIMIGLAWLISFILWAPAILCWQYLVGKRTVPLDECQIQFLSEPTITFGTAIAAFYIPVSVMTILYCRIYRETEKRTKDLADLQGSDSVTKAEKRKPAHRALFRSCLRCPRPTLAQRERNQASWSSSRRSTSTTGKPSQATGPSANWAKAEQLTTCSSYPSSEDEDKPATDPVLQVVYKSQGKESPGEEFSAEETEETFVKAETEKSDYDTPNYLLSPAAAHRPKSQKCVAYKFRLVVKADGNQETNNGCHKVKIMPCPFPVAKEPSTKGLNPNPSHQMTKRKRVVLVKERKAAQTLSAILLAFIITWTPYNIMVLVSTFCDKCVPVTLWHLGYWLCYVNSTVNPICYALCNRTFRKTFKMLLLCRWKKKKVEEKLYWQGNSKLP
# [4] = DRUGMATRIX: GABAA, Chloride Channel, TBOB radioligand binding (ligand: [3H] TBOB); format: cell membranes, Rattus norvegicus, Wistar, Cerebral cortex, Membrane; conditions: Not Active = under 50% inhibition at 10 µM
# [5] = DRUGMATRIX: beta-Lactamase enzyme inhibition (substrate: Nitrocefin); set-up: species or system Bacillus cereus; conditions: Not Active = under 50% inhibition at 10 µM
# [6] = target: T3, Alpha-1A adrenergic receptor (Rattus norvegicus, UniProt P43140); experiment: DRUGMATRIX: Alpha-1A adrenergic receptor radioligand binding (ligand: prazosin); format: cell membranes, Wistar, Submaxillary gland, Membrane; conditions: Not Active = under 50% inhibition at 10 µM
# T3 sequence (P43140 whole entry): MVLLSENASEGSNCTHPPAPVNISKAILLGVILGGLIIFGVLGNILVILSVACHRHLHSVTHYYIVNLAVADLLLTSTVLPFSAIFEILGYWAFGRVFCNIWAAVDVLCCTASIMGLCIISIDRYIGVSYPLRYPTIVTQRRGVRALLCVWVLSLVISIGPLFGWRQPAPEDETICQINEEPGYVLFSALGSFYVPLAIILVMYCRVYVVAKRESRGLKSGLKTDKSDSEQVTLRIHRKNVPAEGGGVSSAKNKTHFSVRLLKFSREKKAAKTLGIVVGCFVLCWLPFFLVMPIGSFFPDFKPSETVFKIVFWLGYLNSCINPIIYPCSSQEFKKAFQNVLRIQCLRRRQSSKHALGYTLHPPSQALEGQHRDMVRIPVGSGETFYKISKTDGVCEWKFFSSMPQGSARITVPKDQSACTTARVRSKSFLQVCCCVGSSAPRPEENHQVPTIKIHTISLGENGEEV
Compound,IC50 [1],IC50 [2],IC50 [3],IC50 [4],Ki [4],IC50 [5],Ki [5],IC50 [6],pIC50 ([5]; read-out: IC50),pIC50 [1],pIC50 [3],pKi [3]
Oc1ccccc1 [PHENOL],Not Active,Not Active,Not Active,Not Active,Not Active,Not Active,Not Active,Not Active,,,,
Oc1ncnc2[nH]ncc12 [ALLOPURINOL],Not Active,Not Active,Not Active,Not Active,Not Active,Not Active,Not Active,Not Active,,,,
COC(=O)Nc1nc2ccc(Sc3ccccc3)cc2[nH]1 [FENBENDAZOLE],Not Active,Not Active,Not Active,Not Active,Not Active,,,Not Active,5.22,,,
C[C@@H]1[C@H](O)[C@@H](C)/C=C/C=C/C=C/C=C/C=C/C=C/C=C/[C@H](O[C@@H]2O[C@H](C)[C@@H](O)[C@H](N)[C@@H]2O)C[C@@H]2O[C@](O)(C[C@@H](O)C[C@@H](O)[C@H](O)CC[C@@H](O)C[C@@H](O)CC(=O)O[C@H]1C)C[C@H](O)[C@H]2C(=O)O [AMPHOTERICIN B],Not Active,,Not Active,Not Active,Not Active,Not Active,Not Active,Not Active,,,,
CCO [ALCOHOL],Not Active,Not Active,Not Active,Not Active,Not Active,Not Active,Not Active,Not Active,,,,
COc1cc(/C=C/C(=O)O)ccc1O [FERULATE],,Not Active,Not Active,Not Active,Not Active,Not Active,Not Active,Not Active,,5.40,,
CNC[C@H](O)c1ccc(O)c(O)c1 [EPINEPHRINE],,Not Active,Not Active,Not Active,Not Active,Not Active,Not Active,,,5.48,,
CC1(COc2ccc(CC3SC(=O)NC3=O)cc2)CCCCC1 (stereo not given) [CIGLITAZONE],Not Active,Not Active,Not Active,Not Active,Not Active,Not Active,Not Active,Not Active,,,,
NC(N)=Nc1nc(CSCCC(N)=NS(N)(=O)=O)cs1 [FAMOTIDINE],Not Active,Not Active,Not Active,Not Active,Not Active,Not Active,Not Active,Not Active,,,,
Nc1nc(F)nc2c1ncn2[C@@H]1O[C@H](CO)[C@@H](O)[C@@H]1O [FLUDARABINE],Not Active,Not Active,Not Active,Not Active,Not Active,Not Active,Not Active,Not Active,,,,
NC(=O)NC(=O)Cc1ccccc1 [PHENACEMIDE],Not Active,Not Active,Not Active,Not Active,Not Active,Not Active,Not Active,Not Active,,,,
Nc1ccc(C(=O)O)c(O)c1 [AMINOSALICYLIC ACID],Not Active,Not Active,Not Active,Not Active,Not Active,Not Active,Not Active,Not Active,,,,
O=c1[nH]cnc2c1ncn2[C@H]1CC[C@@H](CO)O1 [DIDANOSINE],Not Active,Not Active,Not Active,Not Active,Not Active,Not Active,Not Active,Not Active,,,,
NC(=O)CN1CCCC1=O,Not Active,Not Active,Not Active,Not Active,Not Active,Not Active,Not Active,Not Active,,,,
Clc1cc(Cl)c(OCC#CI)cc1Cl [HALOPROGIN],Not Active,Not Active,Not Active,Not Active,Not Active,Not Active,Not Active,Not Active,,,,
O=C(NCCN1CCOCC1)c1ccc(Cl)cc1 [MOCLOBEMIDE],Not Active,Not Active,Not Active,Not Active,Not Active,Not Active,Not Active,Not Active,,,,
Cc1c(N)nc([C@H](CC(N)=O)NC[C@H](N)C(N)=O)nc1C(=O)N[C@H](C(=O)N[C@H](C)[C@@H](O)[C@H](C)C(=O)N[C@H](C(=O)NCCc1nc(-c2nc(C(=O)NCCC[S+](C)C)cs2)cs1)[C@@H](C)O)[C@@H](O[C@@H]1O[C@@H](CO)[C@@H](O)[C@H](O)[C@@H]1O[C@H]1O[C@H](CO)[C@@H](O)[C@H](OC(N)=O)[C@@H]1O)c1c[nH]cn1.[Br-] [BLEOMYCIN A2],Not Active,Not Active,Not Active,Not Active,Not Active,Not Active,Not Active,Not Active,,,,
CC(C)Cc1ccc([C@H](C)C(=O)O)cc1 [DEXIBUPROFEN],Not Active,Not Active,Not Active,Not Active,Not Active,Not Active,Not Active,Not Active,,,,
COc1ccc(C[C@H](N)C(=O)N[C@H]2[C@@H](O)[C@H](n3cnc4c(N(C)C)ncnc43)O[C@@H]2CO)cc1 [PUROMYCIN],Not Active,Not Active,Not Active,Not Active,Not Active,Not Active,Not Active,Not Active,,,,
CCC1(c2ccccc2)C(=O)NC(=O)NC1=O [PHENOBARBITAL],Not Active,Not Active,Not Active,Not Active,Not Active,Not Active,Not Active,Not Active,,,,
O=C1c2ccccc2C(=O)C1c1ccccc1 [PHENINDIONE],Not Active,Not Active,Not Active,Not Active,Not Active,Not Active,Not Active,Not Active,,,,
Cc1cc(C(C)(C)C)c(O)c(C)c1CC1=NCCN1 [OXYMETAZOLINE],Not Active,Not Active,,Not Active,Not Active,Not Active,Not Active,,,,5.88,6.02
CC(CN1c2ccccc2Sc2ccccc21)N(C)C (stereo not given) [PROMETHAZINE],Not Active,Not Active,,Not Active,Not Active,Not Active,Not Active,,,,8.34,8.48
CN(Cc1cc(Br)cc(Br)c1N)C1CCCCC1 [BROMHEXINE],Not Active,,Not Active,Not Active,Not Active,Not Active,Not Active,Not Active,,,,
COc1ccccc1OCCNCC(O)COc1cccc2[nH]c3ccccc3c12 (stereo not given) [CARVEDILOL],Not Active,Not Active,Not Active,Not Active,Not Active,Not Active,Not Active,,,,,
